Assay results from patent US5747235A, “Silver halide light sensitive emulsion layer having enhanced photographic sensitivity” (Eastman Kodak Company, priority 1996, dated 1998).
Structures can show the parent of a compound that is named as a salt.

What was measured:
Format in all cases: physicochemical
[1] = oxidation potential E1 by cyclic voltammetry; conditions: for E1 (V) for XY moiety: Table H, model compound, A and L replaced by alkyl
Outline: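 Compound in 80:20 (v/v) acetonitrile/water with 0.1M lithium perchlorate, nitrogen-purged 10 minutes. Glassy carbon working, platinum wire counter and saturated calomel reference electrodes; 25° C, sweep rate 0.1 V/sec. E1 is the voltammetric peak potential vs. SCE.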

[2] = fragmentation rate constant kfr by laser flash photolysis; conditions: Table H; model compound, A and L replaced by alkyl
Outline: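 DCA excited by laser in presence of biphenyl and ca. 10^-2 M donor generates X-Y radical cation; its decay was monitored at mostly 470-530 nm. Run in acetonitrile with 20% water, mostly at room temperature, some rates extrapolated from temperature dependence; oxygen purging used for decays below 10^6 s^-1.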

[3] = oxidation potential E2 of radical X by laser flash photolysis; conditions: Table H; model compound, A and L replaced by alkyl
Outline: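 Radical X· generated by fragmentation of X-Y·+, formed via 410 nm laser-excited cyanoanthracene (ca. 2×10^-5–10^-4 M) with biphenyl (ca. 0.1 M) cosensitiser and X-Y (ca. 10^-3 M) in acetonitrile or 80:20 acetonitrile/water. E2 bracketed by observing second-acceptor reduction (DCA −0.91 V, TriCA −0.67 V, TCA −0.44 V) by transient absorption near 705–715 nm.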

| Compound | E1 (V) for XY moiety [1] | E1 (V) ([1]; Table II) | E1 (V) ([1]; Table III) | E1 (V) ([1]; Table X) | kfr (s^-1) for XY moiety [2] | E2 (V) for XY moiety [3] | E1 (V) ([1]; Table IV) | E1 (V) ([1]; Table IX) | E1 (V) ([1]; Table XI) |
| --- | --- | --- | --- | --- | --- | --- | --- | --- | --- |
| CCSCCN(c1ccc(C)cc1)[C@@H](C)C(=O)[O-].[Na+] [Compound S-3, N-(4-Methylphenyl)-N-(2-ethylthio-ethyl)alanine sodium salt] | 0.34 V | 0.47 V | 0.38 V | 0.38 V | 6e+07 s⁻¹ | < -0.9 V | – | – | – |
| CCSCCN(c1ccc(C)cc1)C(CC(=O)O)C(=O)O (stereo not drawn) [Compound S-8] | 0.38 V | – | 0.45 V | 0.45 V | 1.3e+07 s⁻¹ | < -0.9 V | – | – | – |
| CCSCCN(c1ccccc1)C(C)C(=O)O (stereo not drawn) [Compound S-9, N-(Phenyl)-N-(2-thioethyl-ethyl)alanine sodium salt] | 0.43 V | – | 0.43 V | 0.43 V | > 2e+07 s⁻¹ | < -0.9 V | 0.43 V | – | – |
| CCSCCN(c1ccc(C(=O)O)cc1)C(C)C(=O)O (stereo not drawn) [Compound S-11] | 0.54 V | – | – | – | > 2e+07 s⁻¹ | < -0.9 V | 0.55 V | 0.54 V | 0.54 V |
| CCSCCN(c1ccc(Cl)cc1)C(C)C(=O)O (stereo not drawn) [Compound S-12, N-(4-Chlorophenyl)-N-(2-thioethyl-ethyl)alanine sodium salt] | 0.40 V | – | – | – | > 2e+07 s⁻¹ | < -0.9 V | 0.51 V | – | 0.51 V |
| CCSCCN(c1cccc(C(N)=O)c1)C(C)C(=O)O (stereo not drawn) [Compound S-13] | 0.52 V | – | – | – | > 2e+07 s⁻¹ | < -0.9 V | 0.53 V | 0.53 V | 0.53 V |
| CCSCCN(c1ccccc1)C(CC(=O)O)C(=O)O (stereo not drawn) [Compound S-14] | 0.48 V | – | – | – | > 2e+07 s⁻¹ | < -0.9 V | – | 0.51 V | 0.51 V |
| Cc1ccc(N(CCC(=O)Nc2cccc(-n3nnnc3S)c2)C(C)C(=O)O)cc1 (stereo not drawn) [PMT-1] | 0.34 V | – | – | – | > 2e+07 s⁻¹ | < -0.9 V | – | – | – |
| CC(C(=O)O)N(CCC(=O)Nc1cccc(-n2nnnc2S)c1)c1ccccc1 (stereo not drawn) [PMT-2] | 0.43 V | – | – | – | > 2e+07 s⁻¹ | < -0.9 V | – | – | – |
